From patent publication US8575188B2 (priority 2009, dated 2013)

Key:
[1] = tested on: human non small cell lung cancer cell line H460; experiment: Antiproliferation (cytotoxicity) assay, 72 hrs under air, Alamar Blue; type: cell-based; settings: Homo sapiens, NCI-H460; H460, inhibition of proliferation, 72 hrs under air; read-out: IC50
[2] = tested on: human prostate cancer cell line PC-3; experiment: Antiproliferation assay, 72 hrs under air, Alamar Blue; type: cell-based; settings: Homo sapiens, read-out: PC3 IC50
[3] = tested on: human colon cancer cell line HT-29; experiment: as above; type: cell-based; settings: Homo sapiens, HT-29, read-out: HT29 IC50
[4] = tested on: human melanoma cell line SKMEL2; experiment: as above; type: cell-based; settings: Homo sapiens, SK-MEL-2, read-out: SKMEL-2 IC50
[5] = tested on: human melanoma cell line SKMEL-28; experiment: as above; type: cell-based; settings: Homo sapiens, SK-MEL-28
[6] = tested on: human melanoma cell line A375; experiment: as above; type: cell-based; settings: Homo sapiens, A-375
[7] = tested on: human melanoma cell line MAMLE-3M; experiment: as above; type: cell-based; settings: Homo sapiens
[8] = tested on: human prostate cancer cell line DU145; experiment: as above; type: cell-based; settings: Homo sapiens, DU-145
[9] = tested on: human prostate cancer cell line LNCap; experiment: as above; type: cell-based; settings: Homo sapiens, LNCaP
[10] = tested on: human ovarian cancer cell line IGROV-1; experiment: as above; type: cell-based; settings: Homo sapiens, IGROV-1
[11] = tested on: Messa ovarian carcinoma cell line; experiment: Efflux pump drug resistance, antiproliferation assay, parent line; type: cell-based; settings: Homo sapiens, MES-SA, 72 h, air, 3 days; read-out: Air 3d MESSA prol. IC50
Method: […] Cells were treated with test compounds at various concentrations under air for 72 hrs, and then cell viability and proliferation were assessed by Alamar Blue staining.
(§1) Cellular drug resistance was determined using the antiproliferation assay described above.

[12] = tested on: DX5, which over expresses the MDR 1 efflux pump; experiment: Efflux pump drug resistance, antiproliferation assay, MDR 1 over expressing line; type: cell-based; settings: MDR1, 72 h, air, 3 days; read-out: Air 3d DX5 prol. IC50
Method: (§2) The compounds were screened for cytotoxicity using human non small cell lung cancer cell line H460. […]
as §1

[13] = tested on: H69 small cell lung cancer line; experiment: Efflux pump drug resistance, antiproliferation assay, parent line; type: cell-based; settings: 72 h, air, 3 days; read-out: Air 3d H69 prol. IC50
Method: as §2, §1

[14] = tested on: pcDNA; experiment: as above; type: cell-based; settings: 72 h, air, 3 days; read-out: Air 3d pcDNA prol. IC50
Method: as §2, §1

[15] = tested on: MRP1 over expressing H69AR line; experiment: Efflux pump drug resistance, antiproliferation assay, MRP1 over expressing line; type: cell-based; settings: Homo sapiens, 72 h, air, 3 days, read-out: Air 3d H69ar (MRP1) prol. IC50
Method: as §2, §1

[16] = tested on: BCRP, which over expressed the breast cancer resistance protein; experiment: Efflux pump drug resistance, antiproliferation assay, BCRP over expressing line
Method: as §2, §1

[17] = Bone marrow progenitor cell clonogenic assay (CFU-GM), mouse; settings: mouse
Method: (§3) A clonogenic assay was performed using bone marrow progenitor cells derived from the blood of mice and humans.

[18] = tested on: bone marrow progenitor cells; experiment: as above; settings: Mus musculus, CFU-GM, read-out: Mouse CFU-GM (IC50 nM) THLD
Method: as §3

[19] = Bone marrow progenitor cell clonogenic assay (CFU-GM), human; settings: human
Method: as §3

[20] = tested on: bone marrow progenitor cells; experiment: as above; settings: Homo sapiens, CFU-GM, read-out: Human CFU-GM (IC50 nM) THLD
Method: as §3

[21] = tested on: human colon cancer HT-29; experiment: Xenograft model, subcutaneous, tumor growth inhibition and body weight loss
How it was run: (§4)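 Cells implanted subcutaneously in the flank; at ~150 mm^3 tumors, mice randomized to groups of 10, with a vehicle-only arm. TGI=(1−T/C)%, T/C=(Tn−Ti)/(Cn−Ci), Day n being the last measurement before any vehicle animal was euthanized; euthanasia above 2000 mm^3.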

[22] = tested on: human non small cell lung cancer H-460; experiment: as above
How it was run: as §4

[23] = tested on: human prostate cancer PC-3; experiment: as above
How it was run: as §4

[24] = Brain penetration, AUC in brain versus AUC plasma; settings: mouse
Method: Certain compounds of the invention were assessed for brain penetration by comparing the AUC for plasma exposure versus the AUC in brain.

[25] = Oral bioavailability; settings: rat, in vivo, Sprague-Dawley rats
Description: Rats are often a useful species for predicting oral bioavailablity in humans.

[26] = In vivo pharmacokinetics, oral gavage; settings: CD, mouse, in vivo, po
Method: The data normalized to a 50 mg/kg dose are shown below (compounds were dosed at either 25 or 50 mg/kg).

[27] = tested on: IGROV1 human ovarian cancer cells; experiment: Xenograft model of metastatic ovarian cancer (i.p.), survival; settings: IGROV1 i.p., median survival treated / vehicle times 100; PO, QD × 5/wk, 4 weeks, 40 mg/Kg
Method: One arm was dosed with only vehicle and the results used for the efficacy calculations. […] A xenograft model of metastatic ovarian cancer was set up by the intraperitoneal (i.p) injection of 3×10^6 IGROV1 human ovarian cancer cells in nude mice. Mice were evaluated twice a week for morbidity and mortality. Kaplan-Meier survival curves were plotted.

`CCc1c2c(nc3ccccc13)-c1c(N)c3c(c(=O)n1C2)COC(=O)[C@]3(O)CC` [TH1338] gave an IC50 [1] of 7.2 nM, an IC50 [2] of 24 nM and an IC50 [3] of 302 nM. The IC50 [4] was 130 nM, the IC50 [5] was over 10000 nM and the IC50 [6] was 7 nM. It also gave an IC50 [7] of 1200 nM, an IC50 [8] of 18 nM and an IC50 [9] of 120 nM. The IC50 [10] was 20 nM, the IC50 [11] was 4.3 nM and the IC50 [12] was 12 nM. For the same molecule, the IC50 [13] was 110 nM, the IC50 [14] was 4.3 nM and the IC50 [15] was 240 nM. The IC50 ([16]; 72 h, read-out: Air 3d BCRP prol. IC50 nM, air, 3 days) was 4.9 nM, the “3d BCRP/pcDNA” value ([16]; ratio of IC50s, BCRP over expressing versus parent line, 3 days) was 1.1395 and the IC90 [17] was 4500 nM. The IC50 [18] was 620 nM, the IC90 [19] was 650 nM and the IC50 [20] was 100 nM. The “TGI (%)” value ([21]; HT29, PO, QD × 5/wk, 4 weeks, 40 mg/Kg) was 100.7%, the “Max. BWL (%)” value ([21]; mouse, in vivo, po, 40 mg/kg) was 2.9% and the “TGI (%)” value ([22]; H460, PO, QD × 5/wk, 2 weeks, 40 mg/Kg) was 84.3%. For the same molecule, the “Max. BWL (%)” value ([22]; mouse, in vivo, po, 40 mg/kg) was 1.5%, the “TGI (%)” value ([23]; PC3, PO, QD × 5/wk, 2 weeks, 40 mg/Kg) was 107% and the “Max. BWL (%)” value ([23]; mouse, in vivo, po, 40 mg/kg) was 7%. It also gave a Kp [24] of 0.7, a bioavailability [25] of 88.9% and a half-life [26] of 4.17 h. The AUC ([26]; 50 mg/kg) was 1070 ng·h/mL, the Cmax ([26]; 50 mg/kg) was 250 ng/mL and the T/C [27] was 221.
